Read-outs that look alike come from different tables or passages of the source.
How the values were obtained:
[1] = test system: PC-3 cells; test: Phosphatidylserine externalization by fluorescence microscopy (PSVue 480) in PC-3 cells; format: cell-based, Human; settings: 10 μM and 1000 μM, 48 hours, dose-dependent
Method: Cell Line and Culture Conditions • Human metastatic, androgen insensitive prostate cancer cells, PC-3, were obtained from ATCC (Manassas, Va., USA). Cells were grown in F-12K medium supplemented with 2 mM glutamine, 10% FBS, 100 U/mL penicillin, and 100 μg/mL streptomycin. PC-3 cells were maintained in a humidified atmosphere of 5% CO2 at 37° C. in T-75 flasks and were subcultured when confluent.
One of the earliest events to occur in apoptosis or programmed cell death is externalization of phosphatidylserine (PS), a membrane phospholipid restricted to the inner leaflet of the lipid bilayer. Redistribution of PS from inner leaflet of plasma membrane lipid bilayer to the outer leaflet occurs in cells undergoing apoptosis. The PSVue™ 480 reagent kit was used to perform the phosphatidylserine (PS) externalization assay. The principle behind this assay involves a strong binding of PSVue™ 480 (fluorescent probe) to the anionic PS residues exposed on the surface of apoptotic cells by its Zn (II)-dipicolylamine (Zn-DPA) functionality, making it a useful apoptotic sensor.
To detect PS externalization, PC-3 cells were seeded at a density of 0.5×10^6 cells/well in flat-bottom, 6-well microtiter plates and were allowed to incubate for 24 h. After 24 h of incubation at 37° C., cells were treated with 10 μM and 1000 μM of carvacrol for 48 h. […]

[2] = test system: LNCaP cells; test: XTT cell proliferation (cell viability) assay in LNCaP cells; format: cell-based; settings: Homo sapiens, mean±S.E.M., read-out: IC50 (anti-proliferative activity, XTT)
Method: (§1) Human metastatic prostate cancer cells, LNCaP, were obtained from ATCC (Manassas, Va., USA). Cells were grown in RPMI-1640 medium supplemented with 2mM glutamine, 10% FBS, 100 U/mL penicillin, and 100 μg/mL streptomycin. LNCaP cells were maintained in a humidified atmosphere of 5% CO2 at 37° C. in T-75 flasks and were subcultured when confluent. Experiments were conducted using cells with passage numbers ranging from 5-20.
The anti-proliferative effect of carvacrol was assessed in human metastatic prostate cancer cells, LNCaP, using the XTT cell proliferation assay. This assay is a colorimetric assay that detects cellular metabolic activities. In this assay, the second generation tetrazolium dye XTT (2,3-bis (2-methoxy-4-nitiro-5-sulfophenyl)-5-[(phenylamino)-carbonyl]-2H tetrazolium hydroxide), is reduced to a soluble, brightly orange colored formazan derivative. To improve the sensitivity of XTT assay, PMS (N-methyl dibenzopyrazine methyl sulfate), an intermediate electron carrier is used. This color change is accomplished by breaking apart the positively charged quaternary tetrazole ring. Mitochondrial oxidoreductases present in viable cells are thought to contribute substantially to the XTT response with their reductants being transferred to the plasma membrane.
LNCaP cells at the density of 10,000 cells/well were seeded into flat-bottom, 96-well microtiter plates (100 μL/well) and allowed to attach and grow for 24 hours, the cells were then treated with 0.1 μM, 1 μM, 10 μM, 100 μM, 1000 μM, and 3000 μM of carvacrol for 24, 48, and 96 hours. […] After incubation, an orange colored formazan product was formed and the absorbance was read at 475 nm using BioTek microplate reader. […] Cell viability of the drug-treated cells was calculated as a fraction of solvent control and the anti-proliferative activity of carvacrol was expressed in terms in IC50 valuesIC50 values of carvacrol were calculated using GraphPad Prism 4 (GraphPad Software Inc., Calif., USA), and are expressed as the means of ±S.E.M> of n≧4 experiments, with triplicate determinations in each experiment. […]

[3] = test system: LNCaP cells; test: Phosphatidylserine externalization by fluorescence microscopy (PSVue 480) in LNCaP cells; format: cell-based, Human; settings: 10 μM and 1000 μM, 48 hours, dose-dependent
Method: as §1
One of the earliest events to occur in apoptosis or programmed cell death is the externalization of phosphatidylserine (PS), a membrane phospholipid restricted to the inner leaflet of the lipid bilayer. Redistribution of PS from the inner leaflet to the outer leaflet occurs in cells undergoing apoptosis. The PSVue™ 480 reagent kit was used to perform the phosphatidylserine (PS) externalization assay. The principle behind this assay involves a strong binding of PSVue™ 480 (fluorescent probe) to the anionic PS residues exposed on the surface of the apoptotic cells by its Zn (II)-dipicolylamine (Zn-DPA) functionality, making it a useful apoptotic sensor.
To detect PS externalization, LNCaP cells were seeded as 0.5×10^6 cells/well in flat-bottom, 6-well microtiter plates. After 24 hours of incubation at 37° C., cells were treated with 10 μM and 1000 μM of carvacrol for 48 hours. […]

In the case of `Cc1ccc(C(C)C)cc1O` [Carvacrol], the “externalization of phosphatidylserine residues (PSVue 480 positive cells)” value [1] is reported as “showed externalization of phosphatidylserine residues”, the IC50 ([2]; 24 hours treatment) is reported as 1670 ± 179 µM and the IC50 ([2]; 48 hours treatment) is reported as 269 ± 58 µM. The IC50 ([2]; 96 hours treatment) was 13.7 ± 4.42 µM and the “externalization of phosphatidylserine residues (PSVue 480 positive cells)” value [3] was “showed externalization of phosphatidylserine residues”.

From patent US20140100290A1, “Method of treating a prostate condition” (priority 2012, published 2014)
